Source: patent publication US9499538B2, “Estrogen receptor modulators and uses thereof” (Seragon Pharmaceuticals, Inc., priority 2012, dated 2016)

Tests used:
ER-α in MCF-7 cells = biological target: T1, ER-α in MCF-7 cells (Homo sapiens, UniProt P03372); experiment: Breast Cancer Cell ER-α In Cell Western Assay (SP1); type: cell-based; conditions: 4 or 24 hr post compound addition; for Emax: MCF7, SP1 antibody, read-out: ER-α In Cell Western Assay (SP1) Max Response; for DC50: SP1 antibody, read-out: ER-α In Cell Western Assay (SP1) IC50
T1 construct: endogenous in cells; host or cells: MCF-7
T1 sequence (P03372 1-595): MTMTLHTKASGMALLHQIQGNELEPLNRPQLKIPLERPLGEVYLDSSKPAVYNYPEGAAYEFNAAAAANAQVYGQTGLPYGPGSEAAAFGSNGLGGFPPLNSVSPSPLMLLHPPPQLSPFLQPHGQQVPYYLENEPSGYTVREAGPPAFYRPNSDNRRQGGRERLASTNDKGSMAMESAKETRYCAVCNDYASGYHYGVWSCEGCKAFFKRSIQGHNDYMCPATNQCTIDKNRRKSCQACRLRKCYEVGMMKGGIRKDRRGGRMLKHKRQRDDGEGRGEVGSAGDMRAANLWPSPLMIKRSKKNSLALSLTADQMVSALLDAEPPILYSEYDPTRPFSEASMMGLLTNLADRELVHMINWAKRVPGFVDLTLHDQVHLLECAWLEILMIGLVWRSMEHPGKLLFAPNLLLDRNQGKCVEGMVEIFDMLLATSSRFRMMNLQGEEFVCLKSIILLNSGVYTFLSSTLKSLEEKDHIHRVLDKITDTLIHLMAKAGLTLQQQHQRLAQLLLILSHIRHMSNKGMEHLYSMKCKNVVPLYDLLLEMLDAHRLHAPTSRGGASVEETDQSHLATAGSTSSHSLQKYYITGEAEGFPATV
Description: MCF-7 cells were adjusted to a concentration of 200,000 cells per mL in RPMI containing 10% charcoal-stripped FBS and 20 mM HEPES. 16 microliters of the cell suspension (3200 cells) was added to each well of a poly-D-lysine 384 well plate, and the cells were incubated overnight to allow the cells to adhere. The following day an eleven point, serial semilog dilution of each compound was added to the cells in 16 μL at a final concentration ranging from 0.3-0.000003 μM. At 4 or 24 hr post compound addition, the cells were fixed (10% formalin in PBS) for 20 minutes. Cells were permeablized in PBS 0.1% Triton and blocked with LICOR blocking buffer (50 μl/well, 90′). The wells were then incubated overnight at 4° C. with SP1 rabbit monoclonal Ab (Thermo Scientific) diluted 1:1000 in LICOR blocking buffer/0.1% Tween-20. Wells which were treated with blocking buffer with Tween but no antibody were used as a background control. Wells were washed with 0.1% Tween-20/PBS and then incubated in goat anti-rabbit IRDye™ 800CW (LICOR Inc.; 1:10000) and DRAQ5 DNA dye (1:2000 for 2 mM stock) diluted in LICOR blocking buffer containing 0.1% Tween-20 and 0.01% SDS for 60 minutes. Cells were washed (50 μl/well, 5′ each) in 0.1% Tween-20/PBS. Plates were scanned on a LICOR Odyssey infrared imaging system. Integrated intensities in the 800 nm channel and 700 nm channel were measured to determine levels of ER and DNA respectively. Percent ER levels were determined as follows: (Integrated intensity 800 nm sample/integrated intensity 700 nm sample)/(Integrated intensity 800 nm untreated cells/integrated intensity 700 nm untreated cells)×100=% ER levels. […]

MCF-7 cells = experiment: Breast Cancer Cell Viability Assays (MCF-7, CellTiter-Glo); type: cell-based; conditions: 5 days' compound exposure; for IC50: Homo sapiens, MCF7, 120 h
Description: MCF-7 cells were adjusted to a concentration of 20,000 cells per mL in RPMI containing 10% FBS and 20 mM HEPES. 16 microliters of the cell suspension (320 cells) was added to each well of a 384 well plate, and the cells were incubated overnight to allow the cells to adhere. The following day an eleven point, serial semilog dilution of each compound was added to the cells in 16 μL at a final concentration ranging from 0.3-0.000003 μM. After 5 days' compound exposure, 16 μL of CellTiter-GLo (Promega, Madison Wis.) was added to the cells, and the relative luminescence units (RLUs) of each well were determined. CellTiter-Glo added to 32 μL of medium without cells was used to obtain a background value. The Percent viability of each sample was determined as follows: (RLU sample−RLU background/RLU untreated cells−RLU background)×100=% viability. […]

| Compound | Emax (ER-α in MCF-7 cells) | DC50 (ER-α in MCF-7 cells) | MCF7 Viability Assay Max Response (MCF-7 cells) | IC50 (MCF-7 cells) |
| --- | --- | --- | --- | --- |
| O=c1[nH]nc(/C=C/c2ccc(/C(=C(\c3ccccc3)C3CCC3)c3ccc4[nH]nc(F)c4c3)cc2)[nH]1 [Example 283, 3-((E)-4-((E)-2-Cyclobutyl-1-(3-fluoro-1H-indazol-5-yl)-2-phenylvinyl)styryl)-1H-1,2,4-triazol-5(4H)-one] | ≥ 40% | ≤ 100 nM | ++ (++ = a single % value ≧ 40%) | ≤ 100 nM |
| COc1ccc(/C(=C(\c2ccc(/C=C/C(=O)O)cc2)c2ccc3scnc3c2)C2CCC2)c(C)c1 [Example 240, (E)-3-(4-((E)-1-(Benzo[d]thiazol-5-yl)-2-cyclobutyl-2-(4-methoxy-2-methylphenyl)vinyl)phenyl)acrylic acid] | ≥ 40% | ≤ 100 nM | ++ (++ = a single % value ≧ 40%) | ≤ 100 nM |
| N#Cc1cc(Cl)ccc1/C(=C(\c1ccc(/C=C/C(=O)O)cc1)c1ccc2[nH]ncc2c1)C1CCC1 [Example 109, (E)-3-(4-((E)-2-(4-Chloro-2-cyanophenyl)-2-cyclobutyl-1-(1H-indazol-5-yl)vinyl)phenyl)acrylic acid] | ≥ 40% | ≤ 100 nM | ++ (++ = a single % value ≧ 40%) | ≤ 100 nM |
| N#Cc1cc(Cl)ccc1/C(=C(\c1ccc(/C=C/C(=O)O)cc1)c1ccc2[nH]nc(F)c2c1)C1CC1 [Example 120, (E)-3-(4-((E)-2-(4-Chloro-2-cyanophenyl)-2-cyclopropyl-1-(3-fluoro-1H-indazol-5-yl)vinyl)phenyl)acrylic acid] | ≥ 40% | ≤ 100 nM | ++ (++ = a single % value ≧ 40%) | ≤ 100 nM |
| N#Cc1ccc(/C(=C(\c2ccc(/C=C/C(=O)O)cc2)c2ccc3[nH]nc(F)c3c2)C2CC2)c(Cl)c1 [Example 119, (E)-3-(4-((E)-2-(2-Chloro-4-cyanophenyl)-2-cyclopropyl-1-(3-fluoro-1H-indazol-5-yl)vinyl)phenyl)acrylic acid] | ≥ 40% | ≤ 100 nM | ++ (++ = a single % value ≧ 40%) | ≤ 100 nM |
| CS(=O)(=O)c1cc(Cl)ccc1/C(=C(\c1ccc(/C=C/C(=O)O)cc1)c1ccc2scnc2c1)C1CCC1 [Example 281, (E)-3-(4-((E)-1-(Benzo[d]thiazol-5-yl)-2-(4-chloro-2-(methylsulfonyl)phenyl)-2-cyclobutylvinyl)phenyl)acrylic acid] | ≥ 40% | ≤ 100 nM | ++ (++ = a single % value ≧ 40%) | ≤ 100 nM |
| O=C(O)/C=C/c1ccc(/C(=C(\c2ncc(F)cc2Cl)C2CCC2)c2ccc3[nH]nc(F)c3c2)cc1 [Example 251, (E)-3-(4-((E)-2-(3-Chloro-5-fluoropyridin-2-yl)-2-cyclobutyl-1-(3-fluoro-1H-indazol-5-yl)vinyl)phenyl)acrylic acid] | ≥ 40% | ≤ 100 nM | ++ (++ = a single % value ≧ 40%) | ≤ 100 nM |
| O=C(O)/C=C/c1ccc(/C(=C(\c2cnc(C(F)(F)F)cc2C(F)(F)F)C2CCC2)c2ccc3[nH]nc(F)c3c2)cc1 [Example 258, (E)-3-(4-((E)-2-(4,6-bis(Trifluoromethyl)pyridin-3-yl)-2-cyclobutyl-1-(3-fluoro-1H-indazol-5-yl)vinyl)phenyl)acrylic acid] | ≥ 40% | ≤ 100 nM | ++ (++ = a single % value ≧ 40%) | ≤ 100 nM |
| COc1cc(C)c(/C(=C(\c2ccc(/C=C/C(=O)O)cc2)c2cccc3[nH]nc(F)c23)C2CCC2)cn1 [Example 245, (E)-3-(4-((E)-2-Cyclobutyl-1-(3-fluoro-1H-indazol-4-yl)-2-(6-methoxy-4-methylpyridin-3-yl)vinyl)phenyl)acrylic acid] | ≥ 40% | ≤ 100 nM | ++ (++ = a single % value ≧ 40%) | ≤ 100 nM |
